# Source: ChEMBL document CHEMBL4229379, “Synthesis and structure-activity relationship of novel bisindole amidines active against MDR Gram-positive and Gram-negative bacteria” (Eur J Med Chem, 2018)
# Experiments:
# Enterococcus faecalis [1] = experiment: Antibacterial activity against vancomycin-resistant Enterococcus faecalis 09-9 after 18 hrs by CLSI broth microdilution method; assay type: functional; conditions: 09-9, 18 h
# Klebsiella pneumoniae [2] = experiment: Antibacterial activity against new delhi metallo-beta-lactamase-1 harboring Klebsiella pneumoniae ATCC BAA-2146 after 18 hrs by CLSI broth microdilution method; assay type: functional; conditions: ATCC BAA-2146, 18 h
# [3] = system: Staphylococcus epidermidis; experiment: Antibacterial activity against methicillin-resistant Staphylococcus epidermidis 12-8 after 18 hrs by CLSI broth microdilution method; assay type: functional; conditions: 12-8, 18 h
# Escherichia coli [4] = experiment: Antibacterial activity against extended-spectrum beta-lactamase deficient Escherichia coli 12-14 after 18 hrs by CLSI broth microdilution method; assay type: functional; conditions: 12-14, 18 h
# Pseudomonas aeruginosa [5] = experiment: Antibacterial activity against Pseudomonas aeruginosa 12-16 after 18 hrs by CLSI broth microdilution method; assay type: functional; conditions: 12-16, 18 h
# Proteus mirabilis = experiment: Antibacterial activity against Proteus mirabilis 12-6 after 18 hrs by CLSI broth microdilution method; assay type: functional; conditions: 12-6, 18 h
# Staphylococcus aureus [6] = experiment: Antibacterial activity against methicillin-sensitive Staphylococcus aureus ATCC 29213 after 18 hrs by CLSI broth microdilution method; assay type: functional; conditions: ATCC 29213, 18 h
# Staphylococcus aureus [7] = experiment: Antibacterial activity against methicillin-sensitive Staphylococcus aureus 15 after 18 hrs by CLSI broth microdilution method; assay type: functional; conditions: Staphylococcus aureus, 15, 18 h
# Escherichia coli [8] = experiment: Antibacterial activity against extended-spectrum beta-lactamase deficient Escherichia coli 1515 after 18 hrs by CLSI broth microdilution method; assay type: functional; conditions: Escherichia coli, 1515, 18 h
# Klebsiella pneumoniae [9] = experiment: Antibacterial activity against extended-spectrum beta-lactamase harboring Klebsiella pneumoniae ATCC 700603 after 18 hrs by CLSI broth microdilution method; assay type: functional; conditions: Klebsiella pneumoniae, 700603, 18 h
# Enterococcus faecium [10] = experiment: Antibacterial activity against vancomycin-sensitive Enterococcus faecium 12-3 after 18 hrs by CLSI broth microdilution method; assay type: functional; conditions: 12-3, 18 h
# [11] = system: Staphylococcus epidermidis; experiment: Antibacterial activity against methicillin-sensitive Staphylococcus epidermidis ATCC 12228 after 18 hrs by CLSI broth microdilution method; assay type: functional; conditions: ATCC 12228, 18 h
# [12] = Cytotoxicity against HEK293T cells assessed as reduction in cell viability after 48 hrs by MTS assay; assay type: cell-based, HEK-293T; conditions: human
# Escherichia coli [13] = experiment: Antibacterial activity against extended-spectrum beta-lactamase harboring Escherichia coli 12-15 after 18 hrs by CLSI broth microdilution method; assay type: functional; conditions: 12-15, 18 h
# Klebsiella pneumoniae [14] = experiment: Antibacterial activity against extended-spectrum beta-lactamase deficient Klebsiella pneumoniae 12-4 after 18 hrs by CLSI broth microdilution method; assay type: functional; conditions: 12-4, 18 h
# Staphylococcus aureus [15] = experiment: Antibacterial activity against methicillin-sensitive Staphylococcus aureus 12-28 after 18 hrs by CLSI broth microdilution method; assay type: functional; conditions: 12-28, 18 h
# Enterococcus faecalis [16] = experiment: Antibacterial activity against vancomycin-sensitive Enterococcus faecalis 12-5 after 18 hrs by CLSI broth microdilution method; assay type: functional; conditions: 12-5, 18 h
# Pseudomonas aeruginosa [17] = experiment: Antibacterial activity against Pseudomonas aeruginosa PAO1 after 18 hrs by CLSI broth microdilution method; assay type: functional; conditions: PAO1, 18 h
# Serratia marcescens = experiment: Antibacterial activity against Serratia marcescens ATCC 21074 after 18 hrs by CLSI broth microdilution method; assay type: functional; conditions: ATCC 21074, 18 h
# Klebsiella pneumoniae [18] = experiment: Antibacterial activity against extended-spectrum beta-lactamase deficient Klebsiella pneumoniae 7 after 18 hrs by CLSI broth microdilution method; assay type: functional; conditions: Klebsiella pneumoniae, 7, 18 h
# Enterococcus faecalis [19] = experiment: Antibacterial activity against vancomycin-resistant Enterococcus faecalis ATCC 51299 after 18 hrs by CLSI broth microdilution method; assay type: functional; conditions: ATCC 51299, 18 h
# Enterobacter cloacae = experiment: Antibacterial activity against Enterobacter cloacae ATCC 43560 after 18 hrs by CLSI broth microdilution method; assay type: functional; conditions: ATCC 43560, 18 h
# Providencia rettgeri = experiment: Antibacterial activity against Providencia rettgeri ATCC 31052 after 18 hrs by CLSI broth microdilution method; assay type: functional; conditions: ATCC 31052, 18 h
# Enterococcus faecalis [20] = experiment: Antibacterial activity against vancomycin-sensitive Enterococcus faecalis ATCC 29212 after 18 hrs by CLSI broth microdilution method; assay type: functional; conditions: ATCC 29212, 18 h
# Staphylococcus aureus [21] = experiment: Antibacterial activity against methicillin-resistant Staphylococcus aureus 12-33 after 18 hrs by CLSI broth microdilution method; assay type: functional; conditions: 12-33, 18 h
# Klebsiella pneumoniae [22] = experiment: Antibacterial activity against extended-spectrum beta-lactamase harboring Klebsiella pneumoniae 12-8 after 18 hrs by CLSI broth microdilution method; assay type: functional; conditions: 12-8, 18 h
# [23] = system: Acinetobacter calcoaceticus; experiment: Antibacterial activity against Acinetobacter calcoaceticus ATCC 19606 after 18 hrs by CLSI broth microdilution method; assay type: functional; conditions: ATCC 19606, 18 h
# Proteus vulgaris = experiment: Antibacterial activity against Proteus vulgaris ATCC 29905 after 18 hrs by CLSI broth microdilution method; assay type: functional; conditions: ATCC 29905, 18 h
# Enterococcus faecium [24] = experiment: Antibacterial activity against vancomycin-resistant Enterococcus faecium 12-1 after 18 hrs by CLSI broth microdilution method; assay type: functional; conditions: 12-1, 18 h
# Enterococcus faecium [25] = experiment: Antibacterial activity against vancomycin-resistant Enterococcus faecium ATCC 700221 after 18 hrs by CLSI broth microdilution method; assay type: functional; conditions: ATCC 700221, 18 h
# Pseudomonas aeruginosa [26] = experiment: Antibacterial activity against Pseudomonas aeruginosa ATCC 27853 after 18 hrs by CLSI broth microdilution method; assay type: functional; conditions: ATCC 27853, 18 h
# Klebsiella aerogenes = experiment: Antibacterial activity against Enterobacter aerogenes ATCC 13048 after 18 hrs by CLSI broth microdilution method; assay type: functional; conditions: ATCC 13048, 18 h
# [27] = system: Staphylococcus epidermidis; experiment: Antibacterial activity against methicillin-sensitive Staphylococcus epidermidis 12-6 after 18 hrs by CLSI broth microdilution method; assay type: functional; conditions: 12-6, 18 h
# Staphylococcus aureus [28] = experiment: Antibacterial activity against methicillin-resistant Staphylococcus aureus ATCC 33591 after 18 hrs by CLSI broth microdilution method; assay type: functional; conditions: ATCC 33591, 18 h
# Escherichia coli [29] = experiment: Antibacterial activity against extended-spectrum beta-lactamase deficient Escherichia coli ATCC 25922 after 18 hrs by CLSI broth microdilution method; assay type: functional; conditions: ATCC 25922, 18 h
# [30] = system: Stenotrophomonas maltophilia; experiment: Antibacterial activity against Stenotrophomonas maltophilia ATCC 13636 after 18 hrs by CLSI broth microdilution method; assay type: functional; conditions: ATCC 13636, 18 h
# Citrobacter freundii = experiment: Antibacterial activity against Citrobacter freundii ATCC 43864 after 18 hrs by CLSI broth microdilution method; assay type: functional; conditions: ATCC 43864, 18 h
SMILES,MIC (Enterococcus faecalis [1]),MIC (Klebsiella pneumoniae [2]),MIC [3],MIC (Escherichia coli [4]),MIC (Pseudomonas aeruginosa [5]),MIC (Proteus mirabilis),MIC (Staphylococcus aureus [6]),MIC (Staphylococcus aureus [7]),MIC (Escherichia coli [8]),MIC (Klebsiella pneumoniae [9]),MIC (Enterococcus faecium [10]),MIC [11],CC50 at 48 h [12],MIC (Escherichia coli [13]),MIC (Klebsiella pneumoniae [14]),MIC (Staphylococcus aureus [15]),MIC (Enterococcus faecalis [16]),MIC (Pseudomonas aeruginosa [17]),MIC (Serratia marcescens),MIC (Klebsiella pneumoniae [18]),other results
CN(C)C(=N)c1ccc2cc(-c3ccc(-c4cc5ccc(C(=N)N(C)C)cc5[nH]4)nc3)[nH]c2c1,4 µg/mL,32 µg/mL,1 µg/mL,4 µg/mL,> 128 µg/mL,> 128 µg/mL,1 µg/mL,1 µg/mL,4 µg/mL,> 128 µg/mL,4 µg/mL,0.5 µg/mL,11.7 µg/mL,4 µg/mL,32 µg/mL,1 µg/mL,4 µg/mL,> 128 µg/mL,> 128 µg/mL,16 µg/mL,MIC (Enterococcus faecalis [19]): 4 µg/mL; MIC (Enterobacter cloacae): 8 µg/mL; MIC (Providencia rettgeri): 16 µg/mL; MIC (Enterococcus faecalis [20]): 4 µg/mL; MIC (Staphylococcus aureus [21]): 2 µg/mL; MIC (Klebsiella pneumoniae [22]): 32 µg/mL; MIC [23]: > 128 µg/mL; MIC (Proteus vulgaris): 16 µg/mL; MIC (Enterococcus faecium [24]): 2 µg/mL; MIC (Enterococcus faecium [25]): 4 µg/mL; MIC (Pseudomonas aeruginosa [26]): 64 µg/mL; MIC (Klebsiella aerogenes): 16 µg/mL; MIC [27]: 2 µg/mL; MIC (Staphylococcus aureus [28]): 1 µg/mL; MIC (Escherichia coli [29]): 4 µg/mL; MIC [30]: 128 µg/mL; MIC (Citrobacter freundii): 16 µg/mL
CCC(C)NC(=N)c1ccc2cc(-c3ccc(-c4cc5ccc(C(=N)NC(C)CC)cc5[nH]4)cc3)[nH]c2c1 (centres undefined),2 µg/mL,4 µg/mL,0.5 µg/mL,4 µg/mL,16 µg/mL,16 µg/mL,0.5 µg/mL,0.5 µg/mL,4 µg/mL,8 µg/mL,1 µg/mL,0.25 µg/mL,15.4 µg/mL,4 µg/mL,4 µg/mL,0.5 µg/mL,2 µg/mL,16 µg/mL,8 µg/mL,4 µg/mL,MIC (Enterococcus faecalis [19]): 2 µg/mL; MIC (Enterobacter cloacae): 4 µg/mL; MIC (Providencia rettgeri): 4 µg/mL; MIC (Enterococcus faecalis [20]): 1 µg/mL; MIC (Staphylococcus aureus [21]): 0.5 µg/mL; MIC (Klebsiella pneumoniae [22]): 4 µg/mL; MIC [23]: 16 µg/mL; MIC (Proteus vulgaris): 4 µg/mL; MIC (Enterococcus faecium [24]): 2 µg/mL; MIC (Enterococcus faecium [25]): 2 µg/mL; MIC (Pseudomonas aeruginosa [26]): 4 µg/mL; MIC (Klebsiella aerogenes): 4 µg/mL; MIC [27]: 1 µg/mL; MIC (Staphylococcus aureus [28]): 0.5 µg/mL; MIC (Escherichia coli [29]): 4 µg/mL; MIC [30]: 4 µg/mL; MIC (Citrobacter freundii): 4 µg/mL
